In patent publication US20150313891A1, “NEURONAL NICOTINIC AGONISTS AND METHODS OF USE” (AbbVie Inc., priority 2014, published 2015):

Tests used:
MPTP-lesioned monkeys [1] = assay: L-dopa-induced dyskinesias (LIDs) ratings in MPTP-lesioned monkeys; assay type: in vivo, squirrel monkeys (Saimiri sciureus)
Text: The objective of the current study was to test the effect of the α7 nAChR agonist ABT-126 for its ability to reduce L-dopa-induced dyskinesias (LIDs) in MPTP-lesioned monkeys. […] All monkeys were orally gavaged with L-dopa/carbidopa twice daily, which led to the development of stable abnormal involuntary movements or dyskinesias. […] These latter two sets of monkeys had previously been given ABT-894 and ABT-107 but using somewhat different treatment regimens. The present study was done after a 7 wk washout period, when LIDs were similar in all groups. ABT-126 was administered orally in a small cracker 30 min before L-dopa (10 mg/kg) and carbidopa (2.5 mg/kg). […] ABT-126 was tested at 0.03, 0.10, 0.30 and 1.0 mg/kg, with each dose of ABT-126 tested for 1 or 2 wk. […] ABT-126 at 0.10 mg/kg reduced LIDs by ˜40%, while the 0.30 and 1.0 mg/kg ABT-126 doses decreased LIDs up to 60%. We also tested the effect of ABT-126 (1.0 mg/kg) for its ability to reduce LIDs at a higher dose of L-dopa (15 mg/kg)/carbidopa (3.75 mg/kg). The higher dose of L-dopa led to greater LID scores in vehicle treated monkeys. […] The effect of ABT-126 was most pronounced during the latter weeks, possibly because of a greater decline with continued drug treatment. A washout is in progress to determine if LIDs return to vehicle-treated levels after ABT-126 discontinuation. There was no effect of the drug on parkinsonism or cognitive ability. Adult male and female squirrel monkeys (Saimiri sciureus) (n=21) weighing 0.6-1.2 kg were obtained from World Wide Primates (Miami, Fla.). The monkeys were quarantined for one month, as mandated by California state regulations. All studies were performed according to the NIH Guide for the Care and Use of Laboratory Animals, and were approved by the Institutional Animal Care and Use Committee at SRI. Animals were housed separately in a room maintained at 27±3° C., with a 12:12-h light/dark cycle. Monkey chow, fruits, and vegetables were provided over the course of the day, with water freely available. After quarantine, all monkeys were trained to perform various motor and other tasks for future assessment of parkinsonism and other behaviors (Quik et al. 2013b, Zhang et al. 2013, Quik et al. 2007, Quik et al. 2013a). They were then injected with saline (n=5) or 2.0 mg/kg 1-methyl-4-phenyl-1,2,3,6-tetrahydropyridine sc (MPTP; Sigma-Aldrich, St. Louis, Mo.) dissolved in saline (n=21), as described (Quik et al. 2013b, Zhang et al. 2013, Quik et al. 2007, Quik et al. 2013a). […] These include spatial hypokinesia (use of available cage space), body bradykinesia (slowness in body movement), manual dexterity in both left and right hands, balance (ability to hold on to the cage bars), freezing, and action tremor as described (Quik et al. 2013b, Zhang et al. 2013, Quik et al. 2007, Quik et al. 2013a). MPTP injections were repeated (1.5-1.9 mg/kg sc per time) if the monkeys were not parkinsonian and to maintain parkinsonism. Parkinsonism was rated once weekly on Monday. The monkeys were next orally gavaged with L-dopa (10 mg/kg) plus carbidopa (2.5 mg/kg), twice daily 4.5 h apart 5 d per wk, as described (Quik et al. 2013b, Zhang et al. 2013, Quik et al. 2007, Quik et al. 2013a). While treated with L-dopa, monkeys were given only fruits and vegetables in the morning to enhance L-dopa absorption. Monkey chow, as well as more fruits and vegetables, were given several hours after the second dose of L-dopa. The monkeys were taped from 8:00 to 8:30 AM, before the first dose of L-dopa to evaluate baseline movements and then from 8:30 to 12:30 PM, following the morning L-dopa dose, to evaluate dyskinesias. LIDs were rated from the video recordings for a 1 min period every 30 min. […]

MPTP-lesioned monkeys [2] = assay: Parkinsonian ratings in MPTP-lesioned monkeys; assay type: in vivo, squirrel monkeys (Saimiri sciureus); details: for Parkinsonian scores Before L-dopa: 45 min before L-dopa; for Parkinsonian scores Before L-dopa / Parkinsonian scores After L-dopa: mean ± SEM, 5 monkeys; for Parkinsonian scores After L-dopa: 90 min after L-dopa (10 mg/kg)/carbidopa (2.5 mg/kg)
Text: After quarantine, all monkeys were trained to perform various motor and other tasks for future assessment of parkinsonism and other behaviors (Quik et al. 2013b, Zhang et al. 2013, Quik et al. 2007, Quik et al. 2013a). […] Sigma-Aldrich, St. Louis, Mo.) dissolved in saline (n=21), as described (Quik et al. 2013b, Zhang et al. 2013, Quik et al. 2007, Quik et al. 2013a). […] These include spatial hypokinesia (use of available cage space), body bradykinesia (slowness in body movement), manual dexterity in both left and right hands, balance (ability to hold on to the cage bars), freezing, and action tremor as described (Quik et al. 2013b, Zhang et al. 2013, Quik et al. 2007, Quik et al. 2013a). MPTP injections were repeated (1.5-1.9 mg/kg sc per time) if the monkeys were not parkinsonian and to maintain parkinsonism. Parkinsonism was rated once weekly on Monday. […] These latter two sets of monkeys had previously been given ABT-894 and ABT-107 but using somewhat different treatment regimens. The present study was done after a 7 wk washout period, at which point LIDs were similar in all groups. […] It was provided in the drinking water starting at 50 μg/ml for 2 days, increased to 150 μg/ml for another two days and then maintained at 300 μg/ml. ABT-126 was tested at 0.03, 0.10, 0.30 and 1.0 mg/kg, with each dose of ABT-126 tested for 1 or 2 wk. Statistical analyses were done using GraphPad Prism. One- or two-way ANOVA was used for multiple group comparisons followed by a Newman-Keuls or Bonferroni post hoc test. Differences in rating scores between groups were analyzed using nonparametric tests (Mann-Whitney test). Data for rating scores was provided as the median (nonparametric) or mean±SEM (parametric). A value of P ≦0.05 is considered statistically significant. Values expressed are the mean±SEM of the indicated number of monkeys.

MPTP-lesioned monkeys [3] = assay: Cognitive testing, object retrieval task; assay type: in vivo, squirrel monkeys (Saimiri sciureus); details: for Attempts / Latency: 90 min after first L-dopa gavage, mean ± SEM, 5 monkeys
Text: To evaluate cognitive performance, an object retrieval task was used that measures a component of prefrontal cortex dependent cognitive control involving inhibition of an initial learned response after subsequent spatial reversals (Lyons et al. 2000, Lyons et al. 2004, Zhang et al. 2013). The apparatus used consists of a clear Plexiglas box (8×8×8 cm) with one open side, containing a small piece of marshmallow (Lyons et al. 2000, Lyons et al. 2004). The box is locked into place on a metallic platform hooked onto the front of the monkey cage. Control and MPTP-lesioned monkeys were scored for the average time and number of trials required to retrieve the marshmallow in 30 sec. The effect of ABT-126 administration was tested once weekly on Friday. […] These latter two sets of monkeys had previously been given ABT-894 and ABT-107 but using somewhat different treatment regimens. The present study was done after a 7 wk washout period, at which point LIDs were similar in all groups. ABT-126 was administered orally in a small cracker 30 min before L-dopa/carbidopa twice daily. […] It was provided in the drinking water starting at 50 μg/ml for 2 days, increased to 150 μg/ml for another two days and then maintained at 300 μg/ml. ABT-126 was tested at 0.03, 0.10, 0.30 and 1.0 mg/kg, with each dose of ABT-126 tested for 1 or 2 wk. Statistical analyses were done using GraphPad Prism. One- or two-way ANOVA was used for multiple group comparisons followed by a Newman-Keuls or Bonferroni post hoc test. Differences in rating scores between groups were analyzed using nonparametric tests (Mann-Whitney test). Data for rating scores was provided as the median (nonparametric) or mean±SEM (parametric). A value of P ≦0.05 is considered statistically significant. Values expressed are the mean±SEM of the indicated number of monkeys.

AD = assay: Phase 2a study, symptomatic treatment of AD; assay type: in vivo, human
[4] = test system: subjects with schizophrenia; assay: Tolerability in subjects with schizophrenia; assay type: in vivo, human; details: doses up to 25 mg QD, including 10 mg QD and 25 mg QD
[5] = ABT-126 1.0 mg/kg orally, higher L-dopa (15 mg/kg)/carbidopa (3.75 mg/kg), wk 6
[6] = 0.03 mg/kg ABT-126 orally, set 1
[7] = 0.03 mg/kg ABT-126 orally, set 2
[8] = ABT-126 orally, MPTP-lesioned L-dopa-treated monkeys
[9] = 0.3 mg/kg ABT-126 orally, set 1
[10] = 0.3 mg/kg ABT-126 orally, set 2
[11] = 300 μg/ml nicotine in the drinking water

With `c1ccc(-c2nnc(O[C@@H]3C4CC5C[C@H]3C[N@](C5)C4)s2)cc1` [ABT-126, (4s)-4-(5-phenyl-1,3,4-thiadiazol-2-yloxy)-1-azatricyclo[3.3.1.1^3,7]decane] the “effect on LIDs” value (MPTP-lesioned monkeys [1]; ABT-126 0.03 mg/kg orally 30 min before L-dopa (10 mg/kg)/carbidopa (2.5 mg/kg)) was “no significant effect”, the “reduction of LIDs” value (MPTP-lesioned monkeys [1]; ABT-126 0.10 mg/kg orally 30 min before L-dopa (10 mg/kg)/carbidopa (2.5 mg/kg)) was roughly 40% and the “hourly time course of LIDs, FIG. 2” value (MPTP-lesioned monkeys [1]; ABT-126 0.3 mg/kg) was “maximal decline”. The “decrease of LIDs” value (MPTP-lesioned monkeys [1]; ABT-126 0.30 mg/kg orally 30 min before L-dopa (10 mg/kg)/carbidopa (2.5 mg/kg)) was “up to 60%”, the “decrease of LIDs” value (MPTP-lesioned monkeys [1]; ABT-126 1.0 mg/kg orally 30 min before L-dopa (10 mg/kg)/carbidopa (2.5 mg/kg)) was “up to 60%” and the “reduction of LIDs after the afternoon dose of L-dopa” value (MPTP-lesioned monkeys [1]; [5]) was 60%. The “reduction of LIDs after the morning dose of L-dopa” value (MPTP-lesioned monkeys [1]; [5]) was 70%, the “decrease of LIDs, total dyskinesia scores (% vehicle), FIG. 1” value (MPTP-lesioned monkeys [1]; increasing doses of ABT-126 (0.03 to 1.0 mg/kg), each for a wk, L-dopa 10 mg/kg plus carbidopa 2.5 mg/kg) was no more than 70% and the “Parkinsonian scores Before L-dopa” value (MPTP-lesioned monkeys [2]; [6]) was 4.2 ± 0.4. The “Parkinsonian scores After L-dopa” value (MPTP-lesioned monkeys [2]; [6]) was 2.6 ± 0.4, the “Parkinsonian scores Before L-dopa” value (MPTP-lesioned monkeys [2]; [7]) was 3.4 ± 0.7 and the “Parkinsonian scores After L-dopa” value (MPTP-lesioned monkeys [2]; [7]) was 2.2 ± 0.2. For the same compound, the effect on parkinsonism (MPTP-lesioned monkeys [2]; [8]) was “no effect”, the Attempts (MPTP-lesioned monkeys [3]; [9]) was 22.8 ± 3.2 and the “Latency” value (MPTP-lesioned monkeys [3]; [9]) was 21.2 ± 2.8 s. The Attempts (MPTP-lesioned monkeys [3]; [10]) was 18.0 ± 2.5, the “Latency” value (MPTP-lesioned monkeys [3]; [10]) was 18.3 ± 3.3 s and the “effect on cognitive ability” value (MPTP-lesioned monkeys [3]; [8]) was “no effect”. The “efficacy in the symptomatic treatment of AD” value (AD) was “signal for efficacy” and the tolerability [4] was “well tolerated”.

With `CN1CCCC1c1cccnc1` (stereo not drawn) [Nicotine, nicotine, reference compound] the “Parkinsonian scores Before L-dopa” value (MPTP-lesioned monkeys [2]; [11]) was 3.6 ± 0.4, the “Parkinsonian scores After L-dopa” value (MPTP-lesioned monkeys [2]; [11]) was 2.4 ± 0.4 and the Attempts (MPTP-lesioned monkeys [3]; [11]) was 23.8 ± 2.8. The “Latency” value (MPTP-lesioned monkeys [3]; [11]) was 19.2 ± 2.2 s.
